From patent US20080248511A1, “METHODS TO QUENCH LIGHT FROM OPTICAL REACTIONS” (priority 2007, published 2008)

How the values were obtained:
firefly luciferase = firefly luciferase (Photinus pyralis, UniProt P08659); experiment: Non-detergent compound screen, firefly luciferase (Example 6); type: biochemical; settings: 0.5% Tergitol NP-9, 0.03% BDDABr; for remaining activity at 10 µM / remaining activity at 100 µM / remaining activity at 1000 µM / remaining activity at 23 µM / remaining activity at 153 µM: read-out: Retained Firefly Luciferase Value (%); for remaining activity at 23 µM: inhibitor 23 μM; for remaining activity at 153 µM: inhibitor 153 μM
Experimental: (§1) Each compound was diluted into 200 mM MOPS pH 6.7, 4 μM MgSO4, 1 mM CDTA, 0.5% Tergitol NP-9, 0.05% Mazu-DF-204, 0.03% BDDABr, 30 mM thiourea, 1 mM bis-(2-mercaptoethylsulfone) (BMS), 4 μM CoA, and 1 μM 5-fluoroluciferin. Just prior to the luciferase reaction, 0.1% Prionex® (Pentapharm) and 2.9 μM coelenterazine-h (Promega) were added to each solution.
(§2) The firefly luciferase and Renilla luciferase enzymes were diluted as described in Examples 3 and 5. The luciferase reactions were initiated by adding 50 μl of the firefly luciferase and Renilla luciferase enzyme solution to 50 μl of reagent solution. The reactions were performed as described above. The retained Renilla and firefly luciferase-mediated luminescence and selectivity values for each inhibitor tested are listed in Table 6.

Renilla luciferase = target: T1, Renilla luciferase (Renilla reniformis, UniProt P27652); experiment: Non-detergent compound screen, Renilla luciferase (Example 6); type: biochemical; settings: for remaining activity at 10 µM / remaining activity at 100 µM / remaining activity at 1000 µM / remaining activity at 23 µM / remaining activity at 153 µM / Retained Renilla Luciferase Value (%): 0.5% Tergitol NP-9, 0.03% BDDABr; for remaining activity at 10 µM / remaining activity at 100 µM / remaining activity at 1000 µM / remaining activity at 23 µM / remaining activity at 153 µM: read-out: Retained Renilla Luciferase Value (%)
T1 sequence (P27652 1-311): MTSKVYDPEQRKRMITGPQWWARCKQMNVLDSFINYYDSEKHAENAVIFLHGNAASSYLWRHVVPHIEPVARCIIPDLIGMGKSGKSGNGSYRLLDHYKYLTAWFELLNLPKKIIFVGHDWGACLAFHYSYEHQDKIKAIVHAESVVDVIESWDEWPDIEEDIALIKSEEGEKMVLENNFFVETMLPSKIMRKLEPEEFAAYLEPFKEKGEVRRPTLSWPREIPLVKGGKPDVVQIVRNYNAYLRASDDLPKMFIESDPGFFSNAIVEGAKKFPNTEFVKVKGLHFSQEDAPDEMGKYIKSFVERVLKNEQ
Experimental: as §1, §2

firefly luciferase, sequence (P08659 whole entry): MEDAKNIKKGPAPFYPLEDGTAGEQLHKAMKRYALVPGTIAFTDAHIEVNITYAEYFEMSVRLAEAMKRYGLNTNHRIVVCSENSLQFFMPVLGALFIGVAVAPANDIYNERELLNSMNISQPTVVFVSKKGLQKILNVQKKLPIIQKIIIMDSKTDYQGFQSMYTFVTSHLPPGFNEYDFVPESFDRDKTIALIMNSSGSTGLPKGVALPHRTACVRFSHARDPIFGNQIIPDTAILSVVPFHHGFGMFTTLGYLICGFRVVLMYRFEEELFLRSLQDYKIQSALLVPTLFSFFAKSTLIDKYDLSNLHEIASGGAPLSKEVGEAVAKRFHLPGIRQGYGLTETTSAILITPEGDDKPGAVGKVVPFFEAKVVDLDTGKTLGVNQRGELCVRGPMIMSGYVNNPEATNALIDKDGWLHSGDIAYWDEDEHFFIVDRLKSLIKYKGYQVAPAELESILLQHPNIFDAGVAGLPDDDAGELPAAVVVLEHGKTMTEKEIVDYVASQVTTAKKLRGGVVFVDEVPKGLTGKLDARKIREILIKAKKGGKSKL

COc1ccc(CCNC(=O)/C=C/c2ccc3[nH]cc(CCN(C)C)c3c2)cc1 [Compound 3062, (E)-3-(3-(2-(dimethylamino)ethyl)-1H-indol-5-yl)-N-(4-methoxyphenethyl)acrylamide]
remaining activity at 10 µM (firefly luciferase; inhibitor 10 μM): 100%
remaining activity at 100 µM (firefly luciferase; inhibitor 100 μM): 98%
remaining activity at 1000 µM (firefly luciferase; inhibitor 1000 μM): 99%
inhibitor of Renilla luciferase, grade in words (Renilla luciferase): excellent inhibitors of Renilla luciferase
Selectivity Value (Renilla luciferase; inhibitor 10 μM): 1.4
remaining activity at 10 µM (Renilla luciferase; inhibitor 10 μM): 74%
Selectivity Value (Renilla luciferase; inhibitor 100 μM): 3.3
remaining activity at 100 µM (Renilla luciferase; inhibitor 100 μM): 30%
Selectivity Value (Renilla luciferase; inhibitor 1000 μM): 19.4
remaining activity at 1000 µM (Renilla luciferase; inhibitor 1000 μM): 5.1%

COc1ccc(CNC(=O)/C=C/c2ccc3[nH]cc(CCCN(C)C)c3c2)cc1 [Compound 3071, (E)-3-(3-(3-(dimethylamino)propyl)-1H-indol-5-yl)-N-(4-methoxybenzyl)acrylamide]
remaining activity at 10 µM (firefly luciferase; inhibitor 10 μM): 101%
remaining activity at 100 µM (firefly luciferase; inhibitor 100 μM): 101%
remaining activity at 1000 µM (firefly luciferase; inhibitor 1000 μM): 100%
inhibitor of Renilla luciferase, grade in words (Renilla luciferase): excellent inhibitors of Renilla luciferase
Selectivity Value (Renilla luciferase; inhibitor 10 μM): 1.8
remaining activity at 10 µM (Renilla luciferase; inhibitor 10 μM): 57%
Selectivity Value (Renilla luciferase; inhibitor 100 μM): 6.7
remaining activity at 100 µM (Renilla luciferase; inhibitor 100 μM): 15%
Selectivity Value (Renilla luciferase; inhibitor 1000 μM): 40
remaining activity at 1000 µM (Renilla luciferase; inhibitor 1000 μM): 2.5%

COc1ccc(CNC(=O)/C=C/c2ccc3c(c2)c(CCN(C)C)cn3Cc2ccccc2)cc1 [Compound 3055, (E)-3-(1-benzyl-3-(2-(dimethylamino)ethyl)-1H-indol-5-yl)-N-(4-methoxybenzyl)acrylamide]
remaining activity at 10 µM (firefly luciferase; inhibitor 10 μM): 100%
remaining activity at 100 µM (firefly luciferase; inhibitor 100 μM): 98%
remaining activity at 1000 µM (firefly luciferase; inhibitor 1000 μM): 99%
inhibitor of Renilla luciferase, grade in words (Renilla luciferase): inhibitors of Renilla luciferase
Selectivity Value (Renilla luciferase; inhibitor 10 μM): 1.2
remaining activity at 10 µM (Renilla luciferase; inhibitor 10 μM): 85%
Selectivity Value (Renilla luciferase; inhibitor 100 μM): 2.2
remaining activity at 100 µM (Renilla luciferase; inhibitor 100 μM): 44%
Selectivity Value (Renilla luciferase; inhibitor 1000 μM): 5.0
remaining activity at 1000 µM (Renilla luciferase; inhibitor 1000 μM): 20%

COc1ccc(CNC(=O)/C=C/c2ccc3oc(=O)cc(C)c3c2)cc1 [Compound 3057, (E)-N-(4-methoxybenzyl)-3-(4-methyl-2-oxo-2H-chromen-6-yl)acrylamide]
remaining activity at 23 µM (firefly luciferase): 100%
remaining activity at 153 µM (firefly luciferase): 98%
remaining activity at 1000 µM (firefly luciferase; inhibitor 1000 μM): 102%
inhibitor of Renilla luciferase, grade in words (Renilla luciferase): suitable inhibitors of Renilla luciferase
Selectivity Value (Renilla luciferase; inhibitor 23 μM): 1
remaining activity at 23 µM (Renilla luciferase; inhibitor 23 μM): 100%
Selectivity Value (Renilla luciferase; inhibitor 153 μM): 1.1
remaining activity at 153 µM (Renilla luciferase; inhibitor 153 μM): 93%
Selectivity Value (Renilla luciferase; inhibitor 1000 μM): 1.3
remaining activity at 1000 µM (Renilla luciferase; inhibitor 1000 μM): 77.5%

COc1cc(OC)c(CNC(=O)/C=C/c2ccc3[nH]cc(CCN(C)C)c3c2)c(OC)c1 [Compound 3073, (E)-3-(3-(2-(dimethylamino)ethyl)-1H-indol-5-yl)-N-(2,4,6-trimethoxybenzyl)acrylamide]
remaining activity at 10 µM (firefly luciferase; inhibitor 10 μM): 101%
remaining activity at 100 µM (firefly luciferase; inhibitor 100 μM): 100%
remaining activity at 1000 µM (firefly luciferase; inhibitor 1000 μM): 101%
inhibitor of Renilla luciferase, grade in words (Renilla luciferase): inhibitors of Renilla luciferase
Selectivity Value (Renilla luciferase; inhibitor 10 μM): 0.99
remaining activity at 10 µM (Renilla luciferase; inhibitor 10 μM): 102%
Selectivity Value (Renilla luciferase; inhibitor 100 μM): 1.5
remaining activity at 100 µM (Renilla luciferase; inhibitor 100 μM): 87%
Selectivity Value (Renilla luciferase; inhibitor 1000 μM): 2.9
remaining activity at 1000 µM (Renilla luciferase; inhibitor 1000 μM): 34.5%

CCCCCCNC(=O)/C=C/c1ccc2[nH]cc(CCN(C)C)c2c1 [Compound 3050, (E)-3-(3-(2-(dimethylamino)ethyl)-1H-indol-5-yl)-N-hexylacrylamide]
remaining activity at 23 µM (firefly luciferase): 102%
remaining activity at 153 µM (firefly luciferase): 102%
remaining activity at 1000 µM (firefly luciferase; inhibitor 1000 μM): 102%
inhibitor of Renilla luciferase, grade in words (Renilla luciferase): suitable inhibitors of Renilla luciferase
Selectivity Value (Renilla luciferase; inhibitor 23 μM): 1.1
remaining activity at 23 µM (Renilla luciferase; inhibitor 23 μM): 93%
Selectivity Value (Renilla luciferase; inhibitor 153 μM): 1.0
remaining activity at 153 µM (Renilla luciferase; inhibitor 153 μM): 99%
Selectivity Value (Renilla luciferase; inhibitor 1000 μM): 1.9
remaining activity at 1000 µM (Renilla luciferase; inhibitor 1000 μM): 55%

COc1ccc(CNC(=O)/C(C#N)=C/c2ccc3[nH]cc(CCN(C)C)c3c2)cc1 [Compound 3044, (E)-2-cyano-3-(3-(2-(dimethylamino)ethyl)-1H-indol-5-yl)-N-(4-methoxybenzyl)acrylamide]
remaining activity at 10 µM (firefly luciferase; inhibitor 10 μM): 99%
remaining activity at 100 µM (firefly luciferase; inhibitor 100 μM): 100%
remaining activity at 1000 µM (firefly luciferase; inhibitor 1000 μM): 132%
inhibitor of Renilla luciferase, grade in words (Renilla luciferase): inhibitors of Renilla luciferase
Selectivity Value (Renilla luciferase; inhibitor 10 μM): 1.2
remaining activity at 10 µM (Renilla luciferase; inhibitor 10 μM): 85%
Selectivity Value (Renilla luciferase; inhibitor 100 μM): 2.8
remaining activity at 100 µM (Renilla luciferase; inhibitor 100 μM): 36%
Selectivity Value (Renilla luciferase; inhibitor 1000 μM): 18.9
remaining activity at 1000 µM (Renilla luciferase; inhibitor 1000 μM): 7.6%

CN(C)CCc1c[nH]c2ccc(/C=C/C(=O)NCc3ccc([N+](=O)[O-])cc3)cc12 [Compound 3063, (E)-3-(3-(2-(dimethylamino)ethyl)-1H-indol-5-yl)-N-(4-nitrobenzyl)acrylamide]
remaining activity at 10 µM (firefly luciferase; inhibitor 10 μM): 102%
remaining activity at 100 µM (firefly luciferase; inhibitor 100 μM): 102%
remaining activity at 1000 µM (firefly luciferase; inhibitor 1000 μM): 102%
inhibitor of Renilla luciferase, grade in words (Renilla luciferase): excellent inhibitors of Renilla luciferase
Selectivity Value (Renilla luciferase; inhibitor 10 μM): 1.6
remaining activity at 10 µM (Renilla luciferase; inhibitor 10 μM): 63%
Selectivity Value (Renilla luciferase; inhibitor 100 μM): 5.4
remaining activity at 100 µM (Renilla luciferase; inhibitor 100 μM): 19%
Selectivity Value (Renilla luciferase; inhibitor 1000 μM): 33
remaining activity at 1000 µM (Renilla luciferase; inhibitor 1000 μM): 3.1%

CCCCCCCC[N+](C)(C)CCc1c[nH]c2ccc(/C=C/C(=O)NCc3ccc(OC)cc3)cc12.[I-] [Compound 3070, (E)-N-(2-(5-(3-(4-methoxybenzylamino)-3-oxoprop-1-enyl)-1H-indol-3-yl)ethyl)-N,N-dimethyloctan-1-ammonium iodide]
Retained Firefly Luciferase Value (%) (firefly luciferase; inhibitor 10 μM): 99%
Retained Firefly Luciferase Value (%) (firefly luciferase; inhibitor 100 μM): 96%
Retained Firefly Luciferase Value (%) (firefly luciferase; inhibitor 1000 μM): 86%
inhibitor of Renilla luciferase, grade in words (Renilla luciferase): excellent inhibitors of Renilla luciferase
Selectivity Value (Renilla luciferase; inhibitor 10 μM): 3.3
Retained Renilla Luciferase Value (%) (Renilla luciferase; inhibitor 10 μM): 30%
Selectivity Value (Renilla luciferase; inhibitor 100 μM): 16
Retained Renilla Luciferase Value (%) (Renilla luciferase; inhibitor 100 μM): 6%
Selectivity Value (Renilla luciferase; inhibitor 1000 μM): 78.2
Retained Renilla Luciferase Value (%) (Renilla luciferase; inhibitor 1000 μM): 1.1%

CCCCCC[N+](C)(C)CCc1c[nH]c2ccc(/C=C/C(=O)NCc3ccc(OC)cc3)cc12.[I-] [Compound 3078, (E)-N-(2-(5-(3-(4-methoxybenzylamino)-3-oxyprop-1-enyl)-1H-indol-3-yl)ethyl)-N,N-dimethylhexan-1-aminium iodide]
Retained Firefly Luciferase Value (%) (firefly luciferase; inhibitor 10 μM): 100%
Retained Firefly Luciferase Value (%) (firefly luciferase; inhibitor 100 μM): 100%
Retained Firefly Luciferase Value (%) (firefly luciferase; inhibitor 1000 μM): 99%
Selectivity Value (Renilla luciferase; inhibitor 10 μM): 20
Retained Renilla Luciferase Value (%) (Renilla luciferase; inhibitor 10 μM): 5.0%
Selectivity Value (Renilla luciferase; inhibitor 100 μM): 100
Retained Renilla Luciferase Value (%) (Renilla luciferase; inhibitor 100 μM): 1.0%
Selectivity Value (Renilla luciferase; inhibitor 1000 μM): 990
Retained Renilla Luciferase Value (%) (Renilla luciferase; inhibitor 1000 μM): 0.1%

COc1ccc(CNC(=O)COc2ccc3[nH]cc(CCN(C)C)c3c2)cc1 [Compound 3031, 2-(3-(2-(dimethylamino)ethyl)-1H-indol-5-yloxy)-N-(4-methoxybenzyl)acetamide]
remaining activity at 23 µM (firefly luciferase): 96%
remaining activity at 153 µM (firefly luciferase): 89%
remaining activity at 1000 µM (firefly luciferase; inhibitor 1000 μM): 89%
inhibitor of Renilla luciferase, grade in words (Renilla luciferase): suitable inhibitors of Renilla luciferase
Selectivity Value (Renilla luciferase; inhibitor 23 μM): 1
remaining activity at 23 µM (Renilla luciferase; inhibitor 23 μM): 96%
Selectivity Value (Renilla luciferase; inhibitor 153 μM): 0.99
remaining activity at 153 µM (Renilla luciferase; inhibitor 153 μM): 90%
Selectivity Value (Renilla luciferase; inhibitor 1000 μM): 1.4
remaining activity at 1000 µM (Renilla luciferase; inhibitor 1000 μM): 66.5%
